Laboratory results taken from PubChem BioAssay AID248 (DTP/NCI, 2004).
“And” between values parts separate entries of the source, which are not always exact repeats. Equal values may be shown once. Inconclusive results and toxic doses are left out. Rule as the data show it: active = T/C of 150% or more; inactive = T/C below 125%.

Tested on: L1210 leukemia ip in BDF1 mice, survival T/C
Assay: NCI In Vivo Anticancer Drug Screen. Data for tumor model L1210 Leukemia (intraperitoneal) in B6D2F1 (BDF1) mice
Conditions: endpoint: mean survival time, higher = longer survival
Method in brief: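 Mice bearing the transplanted tumor received compound or vehicle. Survival of the treated group was divided by that of the vehicle-treated control group to give the ratio.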

[1] = dose: 100.0 mg/kg/injection, schedule: Q01DX001 (ip), vehicle: saline
[2] = dose: 100.0 mg/kg/injection, schedule: Q01DX009 (ip), vehicle: saline
[3] = dose: 200.0 mg/kg/injection, schedule: Q01DX001 (ip), vehicle: saline
[4] = dose: 200.0 mg/kg/injection, schedule: Q01DX009 (ip), vehicle: saline
[5] = dose: 400.0 mg/kg/injection, schedule: Q01DX001 (ip), vehicle: saline
[6] = dose: 100.0 mg/kg/injection, schedule: Q04DX003 (ip), vehicle: saline
[7] = dose: 200.0 mg/kg/injection, schedule: Q04DX003 (ip), vehicle: saline
[8] = dose: 50.0 mg/kg/injection, schedule: Q01DX009 (ip), vehicle: Klucel (hydroxypropylcellulose) (HPC)
[9] = dose: 100.0 mg/kg/injection, schedule: Q04DX002 (ip), vehicle: Klucel (hydroxypropylcellulose) (HPC)
[10] = dose: 200.0 mg/kg/injection, schedule: Q04DX002 (ip), vehicle: Klucel (hydroxypropylcellulose) (HPC)
[11] = dose: 50.0 mg/kg/injection, schedule: Q01DX009 (ip), vehicle: saline with Tween-80
[12] = dose: 100.0 mg/kg/injection, schedule: Q01DX009 (ip), vehicle: saline with Tween-80
[13] = dose: 100.0 mg/kg/injection, schedule: Q04DX003 (ip), vehicle: saline with Tween-80
[14] = dose: 200.0 mg/kg/injection, schedule: Q01DX009 (ip), vehicle: saline with Tween-80
[15] = dose: 200.0 mg/kg/injection, schedule: Q04DX003 (ip), vehicle: saline with Tween-80
[16] = dose: 400.0 mg/kg/injection, schedule: Q04DX003 (ip), vehicle: saline with Tween-80
[17] = dose: 100.0 mg/kg/injection, schedule: Q01DX009 (ip), vehicle: Klucel (hydroxypropylcellulose) (HPC)
[18] = dose: 200.0 mg/kg/injection, schedule: Q01DX009 (ip), vehicle: Klucel (hydroxypropylcellulose) (HPC)
[19] = dose: 400.0 mg/kg/injection, schedule: Q01DX009 (ip), vehicle: Klucel (hydroxypropylcellulose) (HPC)
[20] = dose: 100.0 mg/kg/injection, schedule: Q04DX003 (ip), vehicle: Klucel (hydroxypropylcellulose) (HPC)
[21] = dose: 200.0 mg/kg/injection, schedule: Q04DX003 (ip), vehicle: Klucel (hydroxypropylcellulose) (HPC)
[22] = dose: 400.0 mg/kg/injection, schedule: Q04DX003 (ip), vehicle: Klucel (hydroxypropylcellulose) (HPC)
[23] = dose: 50.0 mg/kg/injection, schedule: Q04DX003 (ip), vehicle: saline
[24] = dose: 100.0 mg/kg/injection, schedule: Q01DX001 (ip), vehicle: saline with Tween-80
[25] = dose: 200.0 mg/kg/injection, schedule: Q01DX001 (ip), vehicle: saline with Tween-80
[26] = dose: 400.0 mg/kg/injection, schedule: Q01DX001 (ip), vehicle: saline with Tween-80

Measured: T/C

N=C(N)SCCN
inactive: [1] 97 % of control | [2] 103 % of control | [3] 90 % of control | [4] 111 % of control | [5] 118 % of control

CC(C)(C)CC(C)(C)c1ccc(OCCO)cc1
inactive: dose: 50.0 mg/kg/injection, schedule: Q01DX009 (ip), vehicle: saline 97 % of control | [2] 91 % of control | [6] 107 % of control | [7] 101 % of control

COB(OC)OC
inactive: dose: 50.0 mg/kg/injection, schedule: Q01DX001 (ip), vehicle: saline 98 % of control | [1] 95 % of control | [3] 101 % of control | [5] 95 % of control

CCCNC(=O)Sc1ccc(Cl)cc1
inactive: dose: 12.5 mg/kg/injection, schedule: Q01DX001 (ip), vehicle: Klucel (hydroxypropylcellulose) (HPC) 100 % of control | dose: 12.5 mg/kg/injection, schedule: Q01DX009 (ip), vehicle: Klucel (hydroxypropylcellulose) (HPC) 95 % of control and 110 % of control | dose: 25.0 mg/kg/injection, schedule: Q01DX001 (ip), vehicle: Klucel (hydroxypropylcellulose) (HPC) 95 % of control | dose: 25.0 mg/kg/injection, schedule: Q01DX009 (ip), vehicle: Klucel (hydroxypropylcellulose) (HPC) 97 % of control and 106 % of control | dose: 50.0 mg/kg/injection, schedule: Q01DX001 (ip), vehicle: Klucel (hydroxypropylcellulose) (HPC) 94 % of control | [8] 98 % of control | [9] 96 % of control | [10] 93 % of control and 86 % of control

CC(=O)OCC1OC(OC2C(COC(C)=O)OC(Sc3ccccc3)C(OC(C)=O)C2OC(C)=O)C(OC(C)=O)C(OC(C)=O)C1OC(C)=O (stereo not drawn)
inactive: dose: 3.13 mg/kg/injection, schedule: Q01DX009 (ip), vehicle: saline with Tween-80 89 % of control | dose: 12.5 mg/kg/injection, schedule: Q01DX009 (ip), vehicle: saline with Tween-80 89 % of control | dose: 25.0 mg/kg/injection, schedule: Q01DX009 (ip), vehicle: saline with Tween-80 90 % of control | dose: 25.0 mg/kg/injection, schedule: Q04DX003 (ip), vehicle: saline with Tween-80 95 % of control | [11] 90 % of control | dose: 50.0 mg/kg/injection, schedule: Q04DX003 (ip), vehicle: saline with Tween-80 95 % of control | [12] 88 % of control | [13] 92 % of control | [14] 94 % of control | [15] 91 % of control | [16] 87 % of control

CC(C)C(C(N)=O)N1C(=O)C2C3CCC(C3)C2C1=O (stereo not drawn)
inactive: [6] 98 % of control | [7] 95 % of control | dose: 400.0 mg/kg/injection, schedule: Q04DX003 (ip), vehicle: saline 107 % of control

COc1ccc(Cl)cc1NC(=O)C(Br)C(Br)c1ccccc1 (stereo not drawn)
inactive: [17] 100 % of control | [18] 97 % of control | [19] 86 % of control

Cc1cc(N(C)C)c([N+](=O)[O-])cc1C=O
inactive: [17] 98 % of control | [20] 100 % of control | [18] 96 % of control | [21] 94 % of control | [19] 96 % of control | [22] 94 % of control

CCCCCCOC(=O)CCCCCCCCCCC(=O)CCCCCC
inactive: [8] 97 % of control | [23] 101 % of control | [17] 108 % of control | [6] 103 % of control | [18] 92 % of control | [7] 106 % of control

CC[S][Hg][Cl]
inactive: dose: 3.0 mg/kg/injection, schedule: Q01DX009 (ip), vehicle: saline with Tween-80 92 % of control | dose: 6.0 mg/kg/injection, schedule: Q01DX009 (ip), vehicle: saline with Tween-80 101 % of control | dose: 12.5 mg/kg/injection, schedule: Q04DX003 (ip), vehicle: saline with Tween-80 101 % of control

FC(F)(F)c1nc2ccccc2[nH]1
inactive: dose: 50.0 mg/kg/injection, schedule: Q04DX002 (ip), vehicle: Klucel (hydroxypropylcellulose) (HPC) 86 % of control | [9] 100 % of control | [10] 93 % of control

CCCCCCCCC(C)NCCO (stereo not drawn)
inactive: dose: 9.5 mg/kg/injection, schedule: Q01DX001 (ip), vehicle: saline 96 % of control | dose: 19.0 mg/kg/injection, schedule: Q01DX001 (ip), vehicle: saline 93 % of control | dose: 38.0 mg/kg/injection, schedule: Q01DX001 (ip), vehicle: saline 90 % of control

Cc1c(C)c2c(c(C)c1O)CC(CO)CO2 (stereo not drawn)
inactive: [24] 92 % of control | [25] 101 % of control | [26] 87 % of control

O=C1CCCc2c1ccc1ccccc21
inactive: [17] 97 % of control | [20] 101 % of control | [21] 103 % of control | [19] 100 % of control | [22] 100 % of control

Cn1c(=O)cc[nH]c1=O
inactive: [24] 95 % of control | [25] 98 % of control | [26] 106 % of control

CCOC(=O)C=C1CCN(C)CC1
inactive: [11] 104 % of control | dose: 75.0 mg/kg/injection, schedule: Q01DX001 (ip), vehicle: saline 97 % of control | [12] 98 % of control | dose: 150.0 mg/kg/injection, schedule: Q01DX001 (ip), vehicle: saline 103 % of control | [14] 97 % of control | dose: 300.0 mg/kg/injection, schedule: Q01DX001 (ip), vehicle: saline 101 % of control

N#CCCN(Cc1ccncc1)CN1C(=O)c2ccccc2C1=O
inactive: [17] 101 % of control | [18] 87 % of control | [19] 96 % of control

COc1cc(-c2cc(-c3ccccc3)c3cc(Cl)ccc3n2)cc(OC)c1OC
inactive: [8] 90 % of control | [17] 88 % of control | [18] 93 % of control

Cc1ccc(-c2c(O)c(Br)c(-c3ccc(C)cc3C)c(O)c2Br)c(C)c1
inactive: [13] 98 % of control | [15] 93 % of control | [16] 93 % of control

Cc1ccc2c3nc4ccccc4c-3csc2c1
inactive: dose: 6.25 mg/kg/injection, schedule: Q01DX009 (ip), vehicle: saline 103 % of control | dose: 12.5 mg/kg/injection, schedule: Q01DX009 (ip), vehicle: saline 108 % of control and 103 % of control | dose: 12.5 mg/kg/injection, schedule: Q04DX003 (ip), vehicle: saline 93 % of control and 92 % of control | dose: 25.0 mg/kg/injection, schedule: Q01DX009 (ip), vehicle: saline 98 % of control and 93 % of control | dose: 25.0 mg/kg/injection, schedule: Q04DX003 (ip), vehicle: saline 93 % of control and 90 % of control | dose: 35.0 mg/kg/injection, schedule: Q01DX009 (ip), vehicle: saline 101 % of control and 86 % of control | [23] 87 % of control | dose: 55.0 mg/kg/injection, schedule: Q01DX009 (ip), vehicle: saline 93 % of control and 92 % of control

COC(=O)C1CCC=C2C1CC1CC2C1(C)C (stereo not drawn)
inactive: [20] 97 % of control | [21] 103 % of control | [22] 95 % of control

O=C(O)C1(O)C(Cl)(Cl)C(Cl)=C(Cl)C1(Cl)Cl
inactive: dose: 50.0 mg/kg/injection, schedule: Q01DX009 (ip), vehicle: saline sonified 103 % of control | dose: 50.0 mg/kg/injection, schedule: Q04DX003 (ip), vehicle: Klucel (hydroxypropylcellulose) (HPC) 92 % of control | dose: 100.0 mg/kg/injection, schedule: Q01DX009 (ip), vehicle: saline sonified 105 % of control | [20] 97 % of control and 100 % of control | [21] 111 % of control

CC(=O)c1ccccc1OCC(O)CN1CCN(c2cccc(C(F)(F)F)c2)CC1 (stereo not drawn)
inactive: [13] 106 % of control | [15] 108 % of control | [16] 108 % of control

O=C1NC2C3CC(c4ccccc43)C12 (stereo not drawn)
inactive: [9] 101 % of control | [10] 108 % of control | dose: 400.0 mg/kg/injection, schedule: Q04DX002 (ip), vehicle: Klucel (hydroxypropylcellulose) (HPC) 111 % of control

CC(=O)CC(=O)OCc1ccccc1
inactive: [2] 93 % of control | [4] 92 % of control | dose: 400.0 mg/kg/injection, schedule: Q01DX009 (ip), vehicle: saline 95 % of control

CC(C(=O)c1cc(O)c(O)cc1C(O)(C(F)(F)F)C(F)(F)F)C(O)(C(F)(F)F)C(F)(F)F (stereo not drawn)
inactive: [13] 102 % of control | [15] 98 % of control | [16] 98 % of control
